Test results taken from patent publication US10183971B2, “SAA-domain-specific antibodies and peptide antagonists and use thereof to treat inflammatory diseases” (The Feinstein Institute For Medical Research, priority 2013, dated 2019).
Entries after “also recorded” stand apart in the source; their conditions may differ.

Experiments:
HMGB1 release = HMGB1 release in vitro by inflammatory mediators (data not shown); type: cell-based
SAA = assay: SAA-induced HMGB1 release in macrophages (Western blotting); type: cell-based; conditions: in vitro
Method: FIG. 5A-5C. Epitope mapping of SAA-specific antibodies using a peptide library. A, Sequence of synthetic SAA peptides (SEQ ID NO:19). […] Macrophages were stimulated with SAA in the absence or presence of different (R1, R2, R3) IgGs, and HMGB1 release was assayed by Western blotting. C, Epitope mapping by dot blot. Note that all rabbit IgGs capable of protecting against lethal endotoxemia cross-reacted with P8 peptide.
Epitope mapping of SAA-neutralizing antibodies. To test the possibility that antibodies or peptides antagonists targeting different SAA domains may divergently affect the outcomes of LSI, SAA-specific antibodies were generated, and the epitopes of these polyclonal IgGs determined using a peptide library (18-mer offset by 6) spanning the entire SAA protein (FIG. 5A). […] Following repetitive immunizations, the titers of anti-SAA IgGs were dramatically elevated in most rabbits (e.g., R1 and R3).

Row | Substance | induction of HMGB1 release in vitro (HMGB1 release) | effect of pre-incubation with peptide on anti-SAA-IgG-mediated inhibition of SAA-induced HMGB1 release (SAA) | inhibition of SAA-induced HMGB1 release (SAA)
1 | EGF: cytoprotective peptide (NSDSECPLSHDGYCLHDGVCMYIEALDKYACNCVVGYIGERCQYRDLKWWELR; Epidermal growth factor; UniProt P01133 971-1023, looked up) | unable to induce HMGB1 release |  | 
2 | IL-6: inflammatory mediator, sepsis surrogate marker | unable to induce HMGB1 release |  | 
3 | IL-8: inflammatory mediator, sepsis surrogate marker | unable to induce HMGB1 release |  | 
4 | REANYIGSDKYFHARGNY (listed as Homo sapiens) [Clone P8, SAA peptide (18-mer) corresponding to residues 25-42] |  | impaired | dose-dependently inhibited
5 | RSFFSFLGEAFDGARDMW (listed as Homo sapiens) [Clone P4, SAA peptide corresponding to residues 1-18] |  |  | dose-dependently inhibited; also recorded: inhibited SAA-induced HMGB1 release
